Test results taken from US20250255850A1, “PHARMACEUTICAL COMPOSITIONS FOR TREATING NEUROLOGICAL CONDITIONS” (YISSUM RESEARCH DEVELOPMENT COMPANY OF THE HEBREW …, priority 2021, published 2025).

Assays:
CNTNAP2−/− mutant mice = assay: Three-chamber sociability test, CNTNAP2-/- mutant mice (M2); format: in vivo, mouse; conditions: 7-NI i.p. 80 mg/kg daily for 10 days, vs untreated M2
Description: (§1) Behavioral testing started after 2 hours of treatment.
Three-chambered sociability test (see, FIG. 4B): Sociability and preference for social novelty and social recognition were tested in a three-chambered apparatus. The subjected mouse was first placed in the central, neutral chamber and allowed to explore for 10 minutes with all the doors closed. Next, doors were opened and the mouse was allowed to freely explore the other two empty chambers (1 and 2) for an additional 10 minutes. Lack of side preference was confirmed during this habituation.
Two cylindrical wire cages were placed, one in chamber 1 and the other in chamber 2. For the sociability test, the test animal was introduced to the middle chamber and allowed to adjust for 5 minutes. Then, an unfamiliar mouse was introduced into a wire cage in one of the side-chambers, and the other side-chamber remained empty. The time spent by the test mouse exploring the wire cage with an unfamiliar mouse inside was recorded for 5 minutes.
In another set of tests, the potential effects of inhibiting NO on the cognitive functions was assayed on an additional mouse model of ASD-CNTNAP2−/− mutant mice. The mice were divided into three testing groups: WT mice, CNTNAP2−/− mutant mice (M2), and mutant mice that were administered with 7-NI (M2+7NI).

neuronal NOS = neuronal NOS (Homo sapiens, UniProt P29475); conditions: Pharm Res., 2001, 18, 1607-1612; cited from earlier work
Sequence of neuronal NOS (P29475 whole entry, species assumed): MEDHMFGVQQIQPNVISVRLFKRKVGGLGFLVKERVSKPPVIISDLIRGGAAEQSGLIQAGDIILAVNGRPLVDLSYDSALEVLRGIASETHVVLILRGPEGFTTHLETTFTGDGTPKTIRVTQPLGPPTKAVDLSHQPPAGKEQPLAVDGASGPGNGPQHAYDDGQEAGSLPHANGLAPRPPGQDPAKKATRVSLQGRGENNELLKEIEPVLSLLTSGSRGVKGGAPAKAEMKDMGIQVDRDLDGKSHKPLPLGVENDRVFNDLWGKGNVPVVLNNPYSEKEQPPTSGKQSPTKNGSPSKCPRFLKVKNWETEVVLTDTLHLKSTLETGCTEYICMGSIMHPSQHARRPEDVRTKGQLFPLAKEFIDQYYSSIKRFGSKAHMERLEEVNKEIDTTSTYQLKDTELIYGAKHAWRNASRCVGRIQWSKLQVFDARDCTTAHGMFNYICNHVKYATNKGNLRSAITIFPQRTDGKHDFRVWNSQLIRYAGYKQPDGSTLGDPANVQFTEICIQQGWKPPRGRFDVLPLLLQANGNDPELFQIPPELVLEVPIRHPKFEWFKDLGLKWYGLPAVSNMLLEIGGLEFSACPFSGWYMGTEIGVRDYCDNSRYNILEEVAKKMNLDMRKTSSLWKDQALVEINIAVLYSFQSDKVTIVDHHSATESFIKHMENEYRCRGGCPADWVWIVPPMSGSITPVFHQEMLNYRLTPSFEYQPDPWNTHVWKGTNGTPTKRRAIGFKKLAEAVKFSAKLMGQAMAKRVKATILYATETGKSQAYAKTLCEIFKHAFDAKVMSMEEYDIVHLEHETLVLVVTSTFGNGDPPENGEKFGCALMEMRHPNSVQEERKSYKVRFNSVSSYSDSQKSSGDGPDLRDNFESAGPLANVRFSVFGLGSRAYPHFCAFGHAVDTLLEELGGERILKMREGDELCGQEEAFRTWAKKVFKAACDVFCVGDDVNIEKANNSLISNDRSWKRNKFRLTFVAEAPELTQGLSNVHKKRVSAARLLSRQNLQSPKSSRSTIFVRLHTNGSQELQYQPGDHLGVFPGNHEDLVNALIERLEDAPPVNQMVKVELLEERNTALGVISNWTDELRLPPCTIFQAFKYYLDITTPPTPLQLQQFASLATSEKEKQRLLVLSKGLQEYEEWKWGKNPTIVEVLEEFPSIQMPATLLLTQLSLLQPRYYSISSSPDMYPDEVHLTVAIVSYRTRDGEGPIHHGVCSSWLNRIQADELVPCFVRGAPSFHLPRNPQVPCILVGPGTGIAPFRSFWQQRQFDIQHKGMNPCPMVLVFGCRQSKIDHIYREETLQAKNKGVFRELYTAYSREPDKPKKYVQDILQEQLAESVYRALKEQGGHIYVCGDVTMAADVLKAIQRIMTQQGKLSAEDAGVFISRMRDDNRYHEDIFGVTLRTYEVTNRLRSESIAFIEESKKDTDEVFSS

3-nitrotyrosine [1] = assay: Western blot of 3-nitrotyrosine in cortical tissue, SHANK3 mutant group (M1); format: in vivo, mouse; conditions: SHANK3 mutant mice treated with 7-NI (M1+7-NI) vs M1
Description: as §1
To further corroborate these findings, the expression of 3-nitrotyrosine in cortical tissue of the wild type (WT), compared with the SHANK3 mutant group (M1), and SHANK3 group treated with 7-NI (M1+7-NI), and in cortical tissue of the wild type (WT), compared with the CNTNAP2^(−/−) mutant group (M2), and the CNTNAP2^(−/−) mutant group treated with 7-NI (M2+7—NI) was tested, and the obtained data is presented in FIGS. 3C-D (for M1) and in FIGS. 3E-F (for M2).

3-nitrotyrosine [2] = assay: Confocal microscopy of 3-nitrotyrosine in cortical neurons, SHANK3 model mice; format: in vivo, mouse; conditions: cortical region, compared to neurons of untreated mice
Description: FIGS. 3G-H present confocal microscopy images (FIG. 3G) and a quantitative bar graph (FIG. 3H) showing nitro-tyrosine in the cortical region of neurons of wild-type mice (WT), SHANK3 model mice (M1) and SHANK3 model mice treated with 7-NI (M1+7-NI).
3-nitrotyrosine levels in were also evaluated by confocal microscopy of the cortical region in neurons of the tested mice, and the obtained data is presented in FIGS. 3G and 3H.

SHANK3 knockout mice = assay: Novel object recognition test, SHANK3 knockout mice (M1); format: in vivo, mouse; conditions: 7-NI IP 80 mg/kg/day for 10 days
Description: as §1
Novel object recognition (see, FIG. 4A): The novel object test for object recognition and memory takes place in a white open field arena (45×45 cm). The test involves a set of two unique novel objects, each about the size of a mouse, constructed from two different materials and non-uniform in shape. The test consisted of one 10-minute habituation session, a 5-minute familiarization session and a 5-minute recognition test, each video tracked (Noldus Ethovision). During the habituation, animals were allowed to freely explore an empty open field. At the end of the session, they were shifted from the open field to a place in a temporary clean holding cage for about 2 minutes. Two identical objects were placed on the median line at 10 cm from each wall and the animal was returned to the open field and allowed to explore the objects for 5 minutes before being returned to its home cage. Next day, one familiar object and one novel object were placed in the open field to the location where the identical objects were placed during the familiarization session and the mouse was allowed to explore them for a 5-minute recognition test. […] Familiarization and recognition sessions were scored for total time spent investigating each object, the number of object interactions and the latency of the first object interaction. […]

SMILES: O=[N+]([O-])c1cccc2cn[nH]c12 [7-NI, 7-nitroindazole]
- time interacting with the stranger mouse (three-chamber sociability) (CNTNAP2−/− mutant mice): spent significantly prolonged time interacting with the stranger mouse
- selectivity for neuronal NOS (neuronal NOS): 10 fold
- expression of 3-Ntyr in cortical tissue (3-nitrotyrosine [1]): reduced the expression of 3-Ntyr
- reduction of 3-nitrotyrosine levels in the neurons (3-nitrotyrosine [2]): about 50%
- preference for the novel object (NOR test) (SHANK3 knockout mice; SHANK3 knockout mice aged 6 weeks): exhibited a significant preference for the novel object over the familiar one
- memory (novel object recognition) in aged mice (SHANK3 knockout mice; SHANK3 knockout mice aged 10 months): restored
